Assay [1] concerns Salmonella enterica. The assay can be described thus: Antibacterial activity against Salmonella enterica 8389 assessed as inhibition of visible growth incubated for 16 to 18 hrs by CLSI method. In kind it is functional. The settings on record: time 16-18 hrs, read-out: MIC100.
In assay [2] the test system is Staphylococcus aureus. The assay can be described thus: Antibacterial activity against […] assessed as fold increase in MIC at sublethal concentration treated over 20 serial passages by resistance development assay. In kind it is functional.
Assay [3] deals with Cell membrane. The assay can be described thus: Induction of membrane disruption in methicillin-resistant Staphylococcus aureus clinical isolate 16 assessed as increase in blue fluorescence at 10 ug/ml by DAPI staining based confocal laser scanning microscopy. The following applies: dose 10.0 µg/ml.
The subject of assay [4] is Staphylococcus aureus. The assay can be described thus: Antibacterial activity against methicillin-resistant Staphylococcus aureus clinical isolate 16 infected in BALB/c mouse assessed as reduction in inflammatory cell inflammation in liver at 25 mg/kg, sc once a day for 3 days by H and E staining based assay. It is filed as functional, organism-based. The following applies: time 3.0 day.

Assay [5] has as its system Staphylococcus aureus. The assay can be described thus: Antibacterial activity against methicillin-resistant Staphylococcus aureus clinical isolate 16 infected in BALB/c mouse assessed as reduction in bacterial load in liver at 25 mg/kg, sc once a day for 3 days by H and E staining based assay. In kind it is functional, organism-based. The following applies: time 3.0 day.

Assay [6] has as its system Staphylococcus aureus. The assay can be described thus: Antibacterial activity against methicillin-resistant Staphylococcus aureus clinical isolate 16 infected in BALB/c mouse assessed as reduction in inflammatory cell inflammation in kidney at 25 mg/kg, sc once a day for 3 days by H and E staining based assay. It is filed as functional, organism-based. The settings on record: time 3.0 day.

Assay [7] has as its system Staphylococcus aureus. The assay can be described thus: Antibacterial activity against […] at sublethal concentration treated over 20 serial passages by resistance development assay. It is filed as functional, organism-based.
The test system of assay [8] is Cell membrane. The assay can be described thus: Induction of membrane morphological changes in methicillin-resistant Staphylococcus aureus clinical isolate 16 assessed as visible cell surface wrinkles and disruption at 10 ug/ml by scanning electron microscopy. The following applies: dose 10.0 µg/ml. It is filed as subcellular.
Assay [9] concerns Staphylococcus aureus. The assay can be described thus: Antibacterial activity against methicillin-resistant Staphylococcus aureus clinical isolate M-17 assessed as inhibition of visible growth incubated for 16 to 18 hrs by CLSI method. The settings on record: time 16-18 hrs, read-out: MIC100. It is filed as functional.
Assay [10] concerns Staphylococcus aureus. The assay can be described thus: Antibacterial activity against methicillin-resistant Staphylococcus aureus clinical isolate M-16 assessed as inhibition of visible growth incubated for 16 to 18 hrs by CLSI method. In kind it is functional. The following applies: time 16-18 hrs, read-out: MIC100.

Data on one molecule can be found in ChEMBL document CHEMBL4831516, “Development of Membrane-Active Honokiol/Magnolol Amphiphiles as Potent Antibacterial Agents against Methicillin-Resistant Staphylococcus aureus (MRSA)” (J Med Chem, 2021).

The source made the active and inactive calls. The calls are words filed in the database; no cut-off is given here.

Take `C=CCc1ccc(OCCC[N+](C)(C)CC(=O)NCCCC)c(-c2ccc(OCCC[N+](C)(C)CC(=O)NCCCC)c(CC=C)c2)c1.[Br-].[Br-]`: the MIC in [1] was found to be 4 µg/mL; in [9], 0.5 µg/mL; in assay [10], 1 µg/mL. Moreover, in [2], the “fold change (FC)” value was 128. Moreover, the Activity entry in assay [3] was “Dose-Dependent Effect”. In addition, the result in [4], in assay [5], in assay [6], in assay [7] and in [8] was Active.
